Data taken from patent US9132291B2, “Water-in-oil emulsion compositions containing gellan gum for topical delivery of active ingredients to the skin or mucosa” (DFB Technology, Ltd., priority 2010, dated 2015).
Where a name gives a salt, the structure may show the parent alone.

Assay: In-Vitro Release Test (Franz Cell diffusion apparatus, 0.45 um Durapore HVLP membrane)
Type: physicochemical
Conditions: 0.5-6 hours at 35° C.
Description: A 0.45 um Durapore HVLP membrane was used between the donor and receptor compartments. The receptor fluid used for analysis of lidocaine HCl was 0.2M NaH2PO4/EtOH/SDS (69/30/1). The receptor fluid used for analysis of metronidazole was 600 mL Ethanol (USP) and 400 mL Phosphate Buffer (1.3 g Na2HPO4 and 1.5 g KH2PO4). The receptor fluid used for analysis of allantoin was 10 mM KH2PO4 buffer (pH=4.7). The sampling of the receptor fluid was performed at 0.5, 1, 2, 4 and 6 hours at 35° C. The concentration of the released actives in the collected samples of the receptor fluid was determined by HPLC analysis. The HPLC mobile phase used for analysis of lidocaine HCl was 0.2M NaH2PO4/EtOH/SDS (69/30/1). The HPLC mobile phase used for analysis of metronidazole was 600 mL Ethanol (USP) and 400 mL Phosphate Buffer (1.3 g Na2HPO4 and 1.5 g KH2PO4). The HPLC mobile phase used for analysis of allantoin was ACN/Water (90/10).

NC(=O)NC1NC(=O)NC1=O (stereo not drawn) [allantoin, Allantoin]
rate of release of allantoin (Formulas D, E, F (0%, 0.45%, 0.75% gellan gum; 0.1% allantoin) W/O emulsion, receptor fluid 10 mM KH2PO4 buffer pH 4.7, FIG. 3 and FIG. 4): increased as the concentration of gellan gum increased

CCN(CC)CC(=O)Nc1c(C)cccc1C [lidocaine HCl, Lidocaine HCl]
rate of release of lidocaine HCl (Formulas G, H, I (0%, 0.45%, 0.75% gellan gum; 2.0% lidocaine HCl) W/O emulsion, receptor fluid 0.2M NaH2PO4/EtOH/SDS (69/30/1), FIG. 5 and FIG. 6): increased as the concentration of gellan gum increased

Cc1ncc([N+](=O)[O-])n1CCO [metronidazole, Metronidazole]
rate of release of metronidazole (Formulas A, B, C (0%, 0.45%, 0.75% gellan gum; 0.75% metronidazole) W/O emulsion, receptor fluid ethanol/phosphate buffer, FIG. 1 and FIG. 2): increased as the concentration of gellan gum increased
